Active and inactive are the calls of the source. No rule for the calls is given here.
Test system: rodent lifetime carcinogenesis bioassay, tumor incidence TD50
Experiment: carcinogenic potency in animals, long-term in vivo studies, CPDB compilation (AID 1745844)
[1] = mouse, strain B6AKF1, females, oral dosing, site: any site (literature study), lesion: several types, types named in the paper, dosed 76 weeks, study length 76 weeks
[2] = mouse, strain B6AKF1, females, oral dosing, site: liver, lesion: hepatoma, dosed 76 weeks, study length 76 weeks
[3] = mouse, strain B6AKF1, males, oral dosing, site: any site (literature study), lesion: several types, types named in the paper, dosed 76 weeks, study length 76 weeks
[4] = mouse, strain B6AKF1, males, oral dosing, site: liver, lesion: hepatoma, dosed 76 weeks, study length 76 weeks
[5] = mouse, strain B6AKF1, males, oral dosing, site: lung, lesion: adenoma, dosed 76 weeks, study length 76 weeks
[6] = mouse, strain B6C3F1, females, oral dosing, site: any site (literature study), lesion: several types, types named in the paper, dosed 76 weeks, study length 76 weeks
[7] = mouse, strain B6C3F1, females, oral dosing, site: liver, lesion: hepatoma, dosed 76 weeks, study length 76 weeks
[8] = mouse, strain B6C3F1, males, oral dosing, site: any site (literature study), lesion: several types, types named in the paper, dosed 76 weeks, study length 76 weeks
[9] = mouse, strain B6C3F1, males, oral dosing, site: liver, lesion: hepatoma, dosed 76 weeks, study length 76 weeks
[10] = mouse, strain B6C3F1, males, oral dosing, site: lung, lesion: adenoma, dosed 76 weeks, study length 76 weeks
[11] = mouse, strain B6AKF1, females, oral dosing, site: lung, lesion: adenoma, dosed 76 weeks, study length 76 weeks

S=C(S)NCCNC(=S)S
carcinogen call [1]: negative (inactive) | carcinogen call [2]: negative (inactive) | carcinogen call (mouse, strain B6AKF1, females, oral dosing, site: lung, lesion: several types, types named in the paper, dosed 76 weeks, study length 76 weeks): negative (inactive) | carcinogen call [3]: negative (inactive) | carcinogen call [4]: negative (inactive) | carcinogen call [5]: negative (inactive) | carcinogen call [6]: negative (inactive) | carcinogen call [7]: negative (inactive) | carcinogen call (mouse, strain B6C3F1, females, oral dosing, site: lung, lesion: adenoma, dosed 76 weeks, study length 76 weeks): negative (inactive) | carcinogen call [8]: negative (inactive) | TD50 [9]: 866 mg/kg/day (inactive) | carcinogen call [10]: negative (inactive)

CCBr
TD50 (mouse, strain B6C3F1, females, inhaled, site: any site (literature study), lesion: several types, types named in the paper, dosed 103 weeks, study length 105 weeks): 571 mg/kg/day | TD50 (mouse, strain B6C3F1, females, inhaled, site: lung, lesion: alveolar/bronchiolar adenoma + alveolar/bronchiolar carcinoma, dosed 103 weeks, study length 105 weeks): 5810 mg/kg/day | TD50 (mouse, strain B6C3F1, females, inhaled, site: uterus, lesion: adenocarcinoma, NOS + adenoma, NOS + squamous-cell carcinoma, dosed 103 weeks, study length 105 weeks): 535 mg/kg/day | TD50 (mouse, strain B6C3F1, females, inhaled, site: uterus, lesion: adenocarcinoma, NOS + adenoma, NOS, dosed 103 weeks, study length 105 weeks): 596 mg/kg/day | TD50 (mouse, strain B6C3F1, females, inhaled, site: uterus, lesion: adenocarcinoma, NOS + squamous-cell carcinoma, dosed 103 weeks, study length 105 weeks): 681 mg/kg/day | TD50 (mouse, strain B6C3F1, females, inhaled, site: uterus, lesion: adenocarcinoma, NOS, dosed 103 weeks, study length 105 weeks): 822 mg/kg/day | TD50 (mouse, strain B6C3F1, females, inhaled, site: uterus, lesion: adenoma, NOS, dosed 103 weeks, study length 105 weeks): 2610 mg/kg/day | TD50 (mouse, strain B6C3F1, females, inhaled, site: uterus, lesion: squamous-cell carcinoma, dosed 103 weeks, study length 105 weeks): 4440 mg/kg/day | TD50 (mouse, strain B6C3F1, males, inhaled, site: any site (literature study), lesion: several types, types named in the paper, dosed 104 weeks, study length 105 weeks): 1630 mg/kg/day | TD50 (mouse, strain B6C3F1, males, inhaled, site: liver, lesion: hepatocellular adenoma + hepatocellular carcinoma + neoplastic nodule, dosed 104 weeks, study length 105 weeks): 3670 mg/kg/day | TD50 (mouse, strain B6C3F1, males, inhaled, site: lung, lesion: alveolar/bronchiolar adenoma + alveolar/bronchiolar carcinoma, dosed 104 weeks, study length 105 weeks): 1100 mg/kg/day | TD50 (mouse, strain B6C3F1, males, inhaled, site: lung, lesion: alveolar/bronchiolar carcinoma, dosed 104 weeks, study length 105 weeks): 2390 mg/kg/day | TD50 (rat, strain Fischer 344, females, inhaled, site: brain, lesion: glioma, NOS, dosed 104 weeks, study length 106 weeks): 1020 mg/kg/day | TD50 (rat, strain Fischer 344, females, inhaled, site: liver, lesion: hepatocellular adenoma + hepatocellular carcinoma + neoplastic nodule, dosed 104 weeks, study length 106 weeks): 670 mg/kg/day | TD50 (rat, strain Fischer 344, females, inhaled, site: lung, lesion: alveolar/bronchiolar adenoma, dosed 104 weeks, study length 106 weeks): 1280 mg/kg/day | TD50 (rat, strain Fischer 344, males, inhaled, site: adrenal medulla + brain + lung, lesion: pheochromocytoma + pheochromocytoma, malignant + astrocytoma + granulosa-cell tumor, NOS + glioma, NOS + oligodendroglioma + alveola, dosed 104 weeks, study length 106 weeks): 151 mg/kg/day | TD50 (rat, strain Fischer 344, males, inhaled, site: adrenal medulla, lesion: pheochromocytoma + pheochromocytoma, malignant, dosed 104 weeks, study length 106 weeks): 149 mg/kg/day | carcinogen call (rat, strain Fischer 344, males, inhaled, site: brain, lesion: astrocytoma + glioma, NOS + oligodendroglioma, dosed 104 weeks, study length 106 weeks): p | TD50 (rat, strain Fischer 344, males, inhaled, site: brain, lesion: granulosa-cell tumor, NOS, dosed 104 weeks, study length 106 weeks): 80700 mg/kg/day | TD50 (rat, strain Fischer 344, males, inhaled, site: liver, lesion: hepatocellular adenoma + hepatocellular carcinoma + neoplastic nodule, dosed 104 weeks, study length 106 weeks): 2280 mg/kg/day | TD50 (rat, strain Fischer 344, males, inhaled, site: liver, lesion: neoplastic nodule, dosed 104 weeks, study length 106 weeks): 1140 mg/kg/day | TD50 (rat, strain Fischer 344, males, inhaled, site: lung, lesion: alveolar/bronchiolar adenoma + alveolar/bronchiolar carcinoma, dosed 104 weeks, study length 106 weeks): 582 mg/kg/day

c1ccc2cc(Nc3ccc(Nc4ccc5ccccc5c4)cc3)ccc2c1
TD50 [1]: 63.8 mg/kg/day (inactive) | carcinogen call [2]: negative (inactive) | TD50 [11]: 221 mg/kg/day (inactive) | carcinogen call [3]: negative (inactive) | carcinogen call [4]: negative (inactive) | carcinogen call [5]: negative (inactive) | TD50 [6]: 235 mg/kg/day (inactive) | carcinogen call [7]: negative (inactive) | carcinogen call (mouse, strain B6C3F1, females, oral dosing, site: lung, lesion: several types, types named in the paper, dosed 76 weeks, study length 76 weeks): negative (inactive) | TD50 [8]: 25.9 mg/kg/day (inactive) | TD50 [9]: 59.4 mg/kg/day (inactive) | TD50 [10]: 192 mg/kg/day (inactive)

Clc1ccc(C(c2ccccc2Cl)C(Cl)Cl)cc1 (centres undefined)
TD50 [1]: 102 mg/kg/day | TD50 [11]: 236 mg/kg/day | TD50 [3]: 187 mg/kg/day | TD50 [5]: 414 mg/kg/day | TD50 (mouse, strain B6AKF1, males, oral dosing, site: lung, lesion: carcinoma, dosed 76 weeks, study length 76 weeks): 467 mg/kg/day | TD50 (mouse, strain B6C3F1, males, oral dosing, site: all sites, lesion: reticulum-cell sarcoma, dosed 76 weeks, study length 76 weeks): 82.1 mg/kg/day | TD50 [8]: 38.5 mg/kg/day | TD50 [9]: 147 mg/kg/day | TD50 [10]: 467 mg/kg/day

FC(F)(Cl)Cl
TD50 (mouse, strain Swiss, females, inhaled, site: all sites, lesion: leukemia, dosed 78 weeks, study length 104 weeks): 4100 mg/kg/day (inactive) | TD50 (mouse, strain Swiss, females, inhaled, site: any site (literature study), lesion: malignant tumor, dosed 78 weeks, study length 104 weeks): 3320 mg/kg/day (inactive) | TD50 (mouse, strain Swiss, females, inhaled, site: any site (literature study), lesion: several types, types named in the paper, dosed 78 weeks, study length 104 weeks): 59000 mg/kg/day (inactive) | TD50 (mouse, strain Swiss, females, inhaled, site: lung, lesion: adenoma, dosed 78 weeks, study length 104 weeks): 91900 mg/kg/day (inactive) | TD50 (mouse, strain Swiss, males, inhaled, site: any site (literature study), lesion: malignant tumor, dosed 78 weeks, study length 104 weeks): 33100 mg/kg/day (inactive) | TD50 (mouse, strain Swiss, males, inhaled, site: any site (literature study), lesion: several types, types named in the paper, dosed 78 weeks, study length 104 weeks): 12100 mg/kg/day (inactive) | TD50 (mouse, strain Swiss, males, inhaled, site: lung, lesion: adenoma, dosed 78 weeks, study length 104 weeks): 41900 mg/kg/day (inactive) | carcinogen call (rat, strain Sprague-Dawley, females, inhaled, site: any site (literature study), lesion: malignant tumor, dosed 104 weeks, study length 104 weeks): negative (inactive) | carcinogen call (rat, strain Sprague-Dawley, females, inhaled, site: any site (literature study), lesion: several types, types named in the paper, dosed 104 weeks, study length 104 weeks): negative (inactive) | TD50 (rat, strain Sprague-Dawley, females, inhaled, site: liver, lesion: angiosarcoma, dosed 104 weeks, study length 104 weeks): 31300 mg/kg/day (inactive) | TD50 (rat, strain Sprague-Dawley, males, inhaled, site: adrenal gland, lesion: pheochromocytoma, dosed 104 weeks, study length 104 weeks): 1320 mg/kg/day (inactive) | carcinogen call (rat, strain Sprague-Dawley, males, inhaled, site: any site (literature study), lesion: malignant tumor, dosed 104 weeks, study length 104 weeks): negative (inactive) | TD50 (rat, strain Sprague-Dawley, males, inhaled, site: any site (literature study), lesion: several types, types named in the paper, dosed 104 weeks, study length 104 weeks): 555 mg/kg/day (inactive) | carcinogen call (rat, strain Sprague-Dawley, males, inhaled, site: liver, lesion: angiosarcoma, dosed 104 weeks, study length 104 weeks): negative (inactive)

CC(=O)NN
TD50 (mouse, strain Swiss, females, by gavage, site: lung, lesion: several types, types named in the paper, dosed 34 weeks, study length 95 weeks): 18.8 mg/kg/day | TD50 (mouse, strain Swiss, females, by gavage, site: lung, lesion: several types, types named in the paper, dosed 95 weeks, study length 95 weeks): 53.8 mg/kg/day | TD50 (mouse, strain Swiss, males, by gavage, site: lung, lesion: several types, types named in the paper, dosed 34 weeks, study length 95 weeks): 4.48 mg/kg/day | TD50 (mouse, strain Swiss, males, by gavage, site: lung, lesion: several types, types named in the paper, dosed 95 weeks, study length 95 weeks): 35.6 mg/kg/day

Cc1cc(=O)[nH]c(=S)[nH]1
TD50 (hamster, strain Not specified, females, in drinking water, site: thyroid gland, lesion: several types, types named in the paper, dosed 52 weeks, study length 52 weeks): 53.4 mg/kg/day | TD50 (mouse, strain C3H/FIB, both sexes, in feed, site: liver, lesion: hepatoma, dosed 51 weeks, study length 78 weeks): 1370 mg/kg/day

O=[N+]([O-])OCC(CO[N+](=O)[O-])O[N+](=O)[O-]
TD50 (rat, strain Charles River CD (Sprague-Dawley), females, in feed, site: liver, lesion: several types, types named in the paper, dosed 104 weeks, study length 104 weeks): 329 mg/kg/day | TD50 (rat, strain Charles River CD (Sprague-Dawley), males, in feed, site: liver, lesion: several types, types named in the paper, dosed 104 weeks, study length 104 weeks): 221 mg/kg/day | TD50 (rat, strain Charles River CD (Sprague-Dawley), males, in feed, site: testis, lesion: interstitial-cell tumor, dosed 104 weeks, study length 104 weeks): 405 mg/kg/day | TD50 (rat, strain Fischer 344, males, in feed, site: liver, lesion: cholangiocarcinoma, dosed 70 weeks, study length 70 weeks): 681 mg/kg/day | TD50 (rat, strain Fischer 344, males, in feed, site: liver, lesion: cholangiocarcinoma, dosed 76 weeks, study length 76 weeks): 509 mg/kg/day | TD50 (rat, strain Fischer 344, males, in feed, site: liver, lesion: cholangioma, dosed 76 weeks, study length 76 weeks): 211 mg/kg/day | TD50 (rat, strain Fischer 344, males, in feed, site: liver, lesion: hepatocellular adenoma, dosed 70 weeks, study length 70 weeks): 179 mg/kg/day | TD50 (rat, strain Fischer 344, males, in feed, site: liver, lesion: hepatocellular adenoma, dosed 76 weeks, study length 76 weeks): 106 mg/kg/day | TD50 (rat, strain Fischer 344, males, in feed, site: liver, lesion: several types, types named in the paper, dosed 70 weeks, study length 70 weeks): 113 mg/kg/day | carcinogen call (rat, strain Fischer 344, males, in feed, site: liver, lesion: several types, types named in the paper, dosed 76 weeks, study length 76 weeks): positive

NC(=O)Cc1c([O-])on[n+]1Cc1ccccc1
TD50 (mouse, strain DDD, females, in drinking water, site: liver, lesion: hepatocellular adenoma, dosed 52 weeks, study length 52 weeks): 10.2 mg/kg/day | TD50 (mouse, strain DDD, females, in drinking water, site: liver, lesion: hepatocellular carcinoma, dosed 52 weeks, study length 52 weeks): 22.6 mg/kg/day | TD50 (mouse, strain DDD, females, in drinking water, site: liver, lesion: several types, types named in the paper, dosed 52 weeks, study length 52 weeks): 10.2 mg/kg/day | TD50 (mouse, strain DDD, females, in drinking water, site: lung, lesion: adenoma, dosed 52 weeks, study length 52 weeks): 31.4 mg/kg/day | TD50 (rat, strain Donryu, males, in drinking water, site: liver, lesion: hepatocellular carcinoma, dosed 41 weeks, study length 91 weeks): 4.24 mg/kg/day | TD50 (rat, strain Donryu, males, in drinking water, site: liver, lesion: neoplastic nodule, dosed 41 weeks, study length 91 weeks): 15.1 mg/kg/day | TD50 (rat, strain Donryu, males, in drinking water, site: liver, lesion: several types, types named in the paper, dosed 41 weeks, study length 91 weeks): 4.24 mg/kg/day | carcinogen call (rat, strain Donryu, males, in feed, site: liver, lesion: one or several types, types not named, dosed 104 weeks, study length 104 weeks): negative (inactive)

N/C(=N\O)c1ccc([N+](=O)[O-])o1
TD50 (rat, strain Sprague-Dawley, females, in feed, site: any site (literature study), lesion: several types, types named in the paper, dosed 46 weeks, study length 66 weeks): 42 mg/kg/day (inactive)

Reference: PubChem BioAssay AID1745844 (Carcinogenic Potency Database (CPDB), 2022)
